{"source": "ChEMBL document CHEMBL5241129", "about": "“Design and synthesis of novel orexin 2 receptor agonists with a 1,3,5‑trioxazatriquinane skeleton” (Bioorg Med Chem Lett, 2023)", "note": "The source made the active and inactive calls. The rule behind the calls is not given here."}
{"target": "T1, Orexin/Hypocretin receptor type 1 (Homo sapiens) (UniProt O43613)", "T1 sequence (whole entry)": "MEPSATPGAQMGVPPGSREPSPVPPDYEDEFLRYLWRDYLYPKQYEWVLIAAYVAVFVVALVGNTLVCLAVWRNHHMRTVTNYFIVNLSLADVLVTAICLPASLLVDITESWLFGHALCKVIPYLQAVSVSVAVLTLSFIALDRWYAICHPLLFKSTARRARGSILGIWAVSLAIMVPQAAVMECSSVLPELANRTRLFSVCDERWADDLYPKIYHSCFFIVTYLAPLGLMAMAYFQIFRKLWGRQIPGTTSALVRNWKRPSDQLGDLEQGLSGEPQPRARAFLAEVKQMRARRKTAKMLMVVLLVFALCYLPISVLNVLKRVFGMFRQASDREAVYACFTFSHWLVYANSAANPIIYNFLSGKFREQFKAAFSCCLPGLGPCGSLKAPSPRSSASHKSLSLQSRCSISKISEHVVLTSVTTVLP", "assay": "Antagonist activity at OX1R (unknown origin) expressed in CHO cells at 10 uM in presence of orexin A by cell based calcium assay", "settings": "not given"}
{"molecule": "C[C@]1(CNS(C)(=O)=O)O[C@@H]2CO[C@H]3N2[C@@H]1O[C@]3(C)CNS(C)(=O)=O", "Activity": "inactive"}
{"molecule": "CC(C)(C)OC(=O)NC[C@@]1(C)O[C@@H]2CO[C@H]3N2[C@@H]1O[C@]3(C)CNC(=O)OC(C)(C)C", "note": "(racemic)", "Activity": "inactive"}
{"molecule": "CCCS(=O)(=O)NC[C@@]1(C)O[C@@H]2CO[C@H]3N2[C@@H]1O[C@]3(C)CNS(=O)(=O)CCC", "Activity": "inactive"}
{"molecule": "CCCCCCCCS(=O)(=O)NC[C@@]1(C)O[C@@H]2CO[C@H]3N2[C@@H]1O[C@]3(C)CNS(=O)(=O)CCCCCCCC", "note": "(racemic)", "Activity": "inactive"}
{"molecule": "CCCCCCCCS(=O)(=O)NC[C@]1(C)O[C@@H]2CO[C@H]3N2[C@@H]1O[C@@]3(C)CNS(=O)(=O)CCCCCCCC", "note": "(stereo in doubt; 28a)", "Activity": "inactive"}
{"molecule": "CCCCS(=O)(=O)NC[C@@]1(C)O[C@@H]2CO[C@H]3N2[C@@H]1O[C@]3(C)CNS(=O)(=O)CCCC", "Activity": "inactive"}
{"target": "T2, Orexin receptor type 2 (Homo sapiens) (UniProt O43614)", "T2 sequence (whole entry)": "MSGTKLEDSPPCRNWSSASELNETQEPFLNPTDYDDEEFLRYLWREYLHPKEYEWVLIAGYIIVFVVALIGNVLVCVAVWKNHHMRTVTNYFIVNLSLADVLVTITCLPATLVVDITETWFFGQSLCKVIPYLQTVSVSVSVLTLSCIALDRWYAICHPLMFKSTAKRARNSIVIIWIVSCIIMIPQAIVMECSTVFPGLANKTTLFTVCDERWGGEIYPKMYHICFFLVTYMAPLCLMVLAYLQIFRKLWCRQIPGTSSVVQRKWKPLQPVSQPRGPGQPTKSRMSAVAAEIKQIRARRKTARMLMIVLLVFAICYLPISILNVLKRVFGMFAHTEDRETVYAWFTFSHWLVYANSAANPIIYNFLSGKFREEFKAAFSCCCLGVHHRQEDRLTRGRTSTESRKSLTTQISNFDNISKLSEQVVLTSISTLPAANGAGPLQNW", "assay": "Agonist activity at OX2R (unknown origin) expressed in CHO cells at 10 uM by cell based calcium assay", "settings": "not given"}
{"molecule": "C[C@@]1(CNC(=O)CCc2ccccc2)O[C@H]2CO[C@@H]3N2[C@H]1O[C@@]3(C)CNC(=O)CCc1ccccc1", "Activity": "inactive"}
{"molecule": "COc1ccc(C(=O)NC[C@]2(C)O[C@H]3CO[C@@H]4N3[C@H]2O[C@@]4(C)CNC(=O)c2ccc(OC)cc2)cc1", "Activity": "inactive"}
{"molecule": "C[C@]1(CNS(=O)(=O)c2ccccc2)O[C@H]2CO[C@@H]3N2[C@H]1O[C@]3(C)CNS(=O)(=O)c1ccccc1", "Activity": "inactive"}
{"molecule": "C[C@@]1(CNC(=O)Cc2ccccc2)O[C@H]2CO[C@@H]3N2[C@H]1O[C@@]3(C)CNC(=O)Cc1ccccc1", "Activity": "inactive"}
{"molecule": "CC(=O)NC[C@]1(C)O[C@H]2CO[C@@H]3N2[C@H]1O[C@@]3(C)CNC(C)=O", "Activity": "inactive"}
{"molecule": "COC(=O)NC[C@]1(C)O[C@H]2CO[C@@H]3N2[C@H]1O[C@@]3(C)CNC(=O)OC", "Activity": "inactive"}
{"molecule": "C=CCOC(=O)NC[C@@]1(C)O[C@H]2CO[C@@H]3N2[C@H]1O[C@]3(C)CNC(=O)OCC=C", "Activity": "inactive"}
{"molecule": "C[C@@]1(CNC(=O)c2ccccc2)O[C@H]2CO[C@@H]3N2[C@H]1O[C@@]3(C)CNC(=O)c1ccccc1", "Activity": "inactive"}
{"molecule": "C[C@@]1(CNC(=O)OCC(Cl)(Cl)Cl)O[C@H]2CO[C@@H]3N2[C@H]1O[C@@]3(C)CNC(=O)OCC(Cl)(Cl)Cl", "Activity": "inactive"}
{"molecule": "CC(=O)NC[C@@]1(C)O[C@H]2CO[C@@H]3N2[C@H]1O[C@]3(C)CNC(C)=O", "Activity": "inactive"}
{"molecule": "COc1cccc(C(=O)NC[C@]2(C)O[C@H]3CO[C@@H]4N3[C@H]2O[C@@]4(C)CNC(=O)c2cccc(OC)c2)c1", "Activity": "inactive"}
{"molecule": "C[C@@]1(CNC(=O)/C=C/c2ccccc2)O[C@H]2CO[C@@H]3N2[C@H]1O[C@@]3(C)CNC(=O)/C=C/c1ccccc1", "Activity": "inactive"}
{"molecule": "CC(C)(C)C(=O)NC[C@]1(C)O[C@H]2CO[C@@H]3N2[C@H]1O[C@@]3(C)CNC(=O)C(C)(C)C", "Activity": "inactive"}
{"molecule": "CC(C)(C)C(=O)NC[C@@]1(C)O[C@H]2CO[C@@H]3N2[C@H]1O[C@]3(C)CNC(=O)C(C)(C)C", "Activity": "inactive"}
{"molecule": "COc1ccccc1C(=O)NC[C@@]1(C)O[C@H]2CO[C@@H]3N2[C@H]1O[C@]3(C)CNC(=O)c1ccccc1OC", "Activity": "inactive"}
{"molecule": "COC(=O)NC[C@@]1(C)O[C@H]2CO[C@@H]3N2[C@H]1O[C@]3(C)CNC(=O)OC", "Activity": "inactive"}
{"molecule": "C[C@]1(CNC(=O)Cc2ccccc2)O[C@H]2CO[C@@H]3N2[C@H]1O[C@]3(C)CNC(=O)Cc1ccccc1", "Activity": "inactive"}
{"molecule": "C[C@@]1(CNC(=O)OCc2ccccc2)O[C@H]2CO[C@@H]3N2[C@H]1O[C@@]3(C)CNC(=O)OCc1ccccc1", "Activity": "inactive"}
{"molecule": "COc1ccccc1C(=O)NC[C@]1(C)O[C@H]2CO[C@@H]3N2[C@H]1O[C@@]3(C)CNC(=O)c1ccccc1OC", "Activity": "inactive"}
{"molecule": "C[C@]1(CNC(=O)c2ccccc2)O[C@H]2CO[C@@H]3N2[C@H]1O[C@]3(C)CNC(=O)c1ccccc1", "Activity": "inactive"}
{"molecule": "COc1cccc(C(=O)NC[C@@]2(C)O[C@H]3CO[C@@H]4N3[C@H]2O[C@]4(C)CNC(=O)c2cccc(OC)c2)c1", "Activity": "inactive"}
{"molecule": "C=CCOC(=O)NC[C@]1(C)O[C@H]2CO[C@@H]3N2[C@H]1O[C@@]3(C)CNC(=O)OCC=C", "Activity": "inactive"}
{"molecule": "C[C@]1(CNC(=O)OCc2ccccc2)O[C@H]2CO[C@@H]3N2[C@H]1O[C@]3(C)CNC(=O)OCc1ccccc1", "Activity": "inactive"}
{"molecule": "COc1ccc(C(=O)NC[C@@]2(C)O[C@H]3CO[C@@H]4N3[C@H]2O[C@]4(C)CNC(=O)c2ccc(OC)cc2)cc1", "Activity": "inactive"}
{"molecule": "C[C@]1(CNC(=O)CCc2ccccc2)O[C@H]2CO[C@@H]3N2[C@H]1O[C@]3(C)CNC(=O)CCc1ccccc1", "Activity": "inactive"}
{"molecule": "C[C@]1(CNC(=O)OCC(Cl)(Cl)Cl)O[C@H]2CO[C@@H]3N2[C@H]1O[C@]3(C)CNC(=O)OCC(Cl)(Cl)Cl", "Activity": "inactive"}
{"molecule": "C[C@]1(CNC(=O)/C=C/c2ccccc2)O[C@H]2CO[C@@H]3N2[C@H]1O[C@]3(C)CNC(=O)/C=C/c1ccccc1", "Activity": "inactive"}
{"target": "T3, Orexin/Hypocretin receptor type 1 (Homo sapiens, UniProt O43613)", "T3 sequence (O43613 whole entry)": "T1 sequence (whole entry)", "assay": "Antagonist activity at OX1R (unknown origin)", "settings": "not given", "units": {"Ki": "nM"}}
{"molecule": "COc1ccc(C(=O)Nc2cccc([C@@]3(C)O[C@@H]4CO[C@H]5N4[C@@H]3O[C@]5(C)c3cccc(NC(=O)c4ccc(OC)cc4)c3)c2)cc1", "Ki": 2.17}
{"molecule": "COc1ccc(C(=O)Nc2cccc([C@]3(C)O[C@H]4CO[C@@H]5N4[C@H]3O[C@@]5(C)c3cccc(NC(=O)c4ccc(OC)cc4)c3)c2)cc1", "Ki": 5.23}
{"target": "T1, Orexin/Hypocretin receptor type 1 (Homo sapiens)", "assay": "(§1) Agonist activity at OX1R (unknown origin) expressed in CHO cells at 10 uM by cell based calcium assay relative to orexin A", "settings": "not given", "units": {"Emax": "%"}}
{"molecule": "CC(C)(C)OC(=O)NC[C@@]1(C)O[C@H]2N3[C@@H](CO[C@@H]31)O[C@@]2(C)CNC(=O)OC(C)(C)C", "Emax": 4.94}
{"molecule": "CCCCCCCCS(=O)(=O)NC[C@]1(C)O[C@@H]2CO[C@H]3N2[C@@H]1O[C@@]3(C)CNS(=O)(=O)CCCCCCCC", "note": "(stereo in doubt; (+)-28d) [listing 1 of 2 here]", "Emax": 5.66}
{"molecule": "CC(C)(C)NC(=O)NC[C@@]1(C)O[C@@H]2CO[C@H]3N2[C@@H]1O[C@]3(C)CNC(=O)NC(C)(C)C", "Emax": 2.81}
{"molecule": "CCCCCCCCS(=O)(=O)NC[C@@]1(C)O[C@H]2N3[C@@H](CO[C@@H]31)O[C@@]2(C)CNS(=O)(=O)CCCCCCCC", "Emax": 3.71}
{"molecule": "C[C@]1(CNS(C)(=O)=O)O[C@@H]2CO[C@H]3N2[C@@H]1O[C@]3(C)CNS(C)(=O)=O", "Emax": 5.66}
{"molecule": "CCCCCCCCS(=O)(=O)NC[C@@]1(C)O[C@@H]2CO[C@H]3N2[C@@H]1O[C@@]3(C)CNS(=O)(=O)CCCCCCCC", "Emax": 3.86}
{"molecule": "CC(C)(C)OC(=O)NC[C@@]1(C)O[C@@H]2CO[C@H]3N2[C@@H]1O[C@@]3(C)CNC(=O)OC(C)(C)C", "Emax": 2.21}
{"molecule": "CCCS(=O)(=O)NC[C@@]1(C)O[C@@H]2CO[C@H]3N2[C@@H]1O[C@]3(C)CNS(=O)(=O)CCC", "Emax": 14.2}
{"molecule": "CN(C[C@@]1(C)O[C@@H]2CO[C@H]3N2[C@@H]1O[C@]3(C)CN(C)C(=O)OC(C)(C)C)C(=O)OC(C)(C)C", "Emax": 4.47}
{"molecule": "CCCCCCCCS(=O)(=O)NC[C@@]1(C)O[C@@H]2CO[C@H]3N2[C@@H]1O[C@]3(C)CNS(=O)(=O)CCCCCCCC", "note": "(racemic)", "Emax": 23.6}
{"molecule": "CCCCCCCCS(=O)(=O)NC[C@]1(C)O[C@@H]2CO[C@H]3N2[C@@H]1O[C@@]3(C)CNS(=O)(=O)CCCCCCCC", "note": "(stereo in doubt; 28a)", "Emax": 11.8}
{"molecule": "CC(C)(C)OC(=O)NC[C@]1(C)O[C@@H]2CO[C@H]3N2[C@@H]1O[C@@]3(C)CNC(=O)OC(C)(C)C", "note": "(stereo in doubt; (+)-20d)", "Emax": 5.07}
{"molecule": "CCCCS(=O)(=O)NC[C@@]1(C)O[C@@H]2CO[C@H]3N2[C@@H]1O[C@]3(C)CNS(=O)(=O)CCCC", "Emax": 11.1}
{"molecule": "CCCCCCCCS(=O)(=O)N(C)C[C@@]1(C)O[C@@H]2CO[C@H]3N2[C@@H]1O[C@]3(C)CN(C)S(=O)(=O)CCCCCCCC", "Emax": 2.65}
{"molecule": "CC(C)(C)OC(=O)NC[C@@]1(C)O[C@H]2CO[C@@H]3N2[C@H]1O[C@]3(C)CNC(=O)OC(C)(C)C", "Emax": 4.31}
{"molecule": "CCCCCCCCS(=O)(=O)NC[C@@]1(C)O[C@H]2CO[C@@H]3N2[C@H]1O[C@]3(C)CNS(=O)(=O)CCCCCCCC", "Emax": 5.29}
{"molecule": "CC(C)(C)OC(=O)NC[C@]1(C)O[C@@H]2CO[C@H]3N2[C@@H]1O[C@@]3(C)CNC(=O)OC(C)(C)C", "note": "(stereo in doubt; 20a)", "Emax": 30.1}
{"target": "T1, Orexin/Hypocretin receptor type 1 (Homo sapiens)", "assay": "as §1", "settings": "filed as agonist", "units": {"Emax": "%"}}
{"molecule": "CC(C)(C)OC(=O)NC[C@@]1(C)O[C@@H]2CO[C@H]3N2[C@@H]1O[C@]3(C)CNC(=O)OC(C)(C)C", "note": "(racemic)", "Emax": 54}
{"target": "T1, Orexin/Hypocretin receptor type 1 (Homo sapiens)", "assay": "Agonist activity at OX1R (unknown origin) expressed in CHO cells at 10 uM by cell based calcium assay", "settings": "not given"}
{"molecule": "C[C@]1(CNS(=O)(=O)c2ccccc2)O[C@H]2CO[C@@H]3N2[C@H]1O[C@]3(C)CNS(=O)(=O)c1ccccc1", "Activity": "inactive"}
{"target": "T4, Orexin receptor type 2 (Homo sapiens, UniProt O43614)", "T4 sequence (O43614 whole entry)": "T2 sequence (whole entry)", "assay": "Agonist activity at OX2R (unknown origin) expressed in CHO cells by cell based calcium assay", "settings": "not given", "units": {"EC50": "nM"}}
{"molecule": "CCCCCCCCS(=O)(=O)NC[C@]1(C)O[C@@H]2CO[C@H]3N2[C@@H]1O[C@@]3(C)CNS(=O)(=O)CCCCCCCC", "note": "(stereo in doubt; (+)-28d) [listing 2 of 2 here]", "EC50": 1620}
{"molecule": "CCCCCCCCS(=O)(=O)NC[C@@]1(C)O[C@H]2CO[C@@H]3N2[C@H]1O[C@]3(C)CNS(=O)(=O)CCCCCCCC", "EC50": 2420}
